Data from ChEMBL document CHEMBL5678810.

Tests used:
[1] = target: AP2-associated protein kinase 1 (Homo sapiens) (UniProt Q2M2I8); test: Inhibition of T7 bacteriophage fused human AAK1 at 10 uM by KINOMEscan analysis relative to control
[2] = target: Activin receptor type-1B (Homo sapiens) (UniProt P36896); test: Inhibition of T7 bacteriophage fused human ACVR1B at 10 uM by KINOMEscan analysis relative to control
[3] = target: Aurora kinase C (Homo sapiens) (UniProt Q9UQB9); test: Inhibition of T7 bacteriophage fused human AURKC at 10 uM by KINOMEscan analysis relative to control
[4] = target: BMP-2-inducible protein kinase (Homo sapiens) (UniProt Q9NSY1); test: Inhibition of T7 bacteriophage fused human BIKE at 10 uM by KINOMEscan analysis relative to control
[5] = target: Calcium/calmodulin-dependent protein kinase type 1 (Homo sapiens) (UniProt Q14012); test: Inhibition of T7 bacteriophage fused human CAMK1 at 10 uM by KINOMEscan analysis relative to control
[6] = target: Cyclin-dependent kinase 13 (Homo sapiens) (UniProt Q14004); test: Inhibition of T7 bacteriophage fused human CDC2L5 at 10 uM by KINOMEscan analysis relative to control
[7] = target: Cyclin-dependent kinase-like 5 (Homo sapiens) (UniProt O76039); test: Inhibition of T7 bacteriophage fused human CDKL5 at 10 uM by KINOMEscan analysis relative to control
[8] = target: Serine/threonine-protein kinase Chk1 (Homo sapiens) (UniProt O14757); test: Inhibition of T7 bacteriophage fused human CHEK1 at 10 uM by KINOMEscan analysis relative to control
[9] = target: Dual specificity protein kinase CLK3 (Homo sapiens) (UniProt P49761); test: Inhibition of T7 bacteriophage fused human CLK3 at 10 uM by KINOMEscan analysis relative to control
[10] = target: Megakaryocyte-associated tyrosine-protein kinase (Homo sapiens) (UniProt P42679); test: Inhibition of T7 bacteriophage fused human CTK at 10 uM by KINOMEscan analysis relative to control
[11] = target: Epithelial discoidin domain-containing receptor 1 (Homo sapiens) (UniProt Q08345); test: Inhibition of T7 bacteriophage fused human DDR1 at 10 uM by KINOMEscan analysis relative to control
[12] = target: Mitogen-activated protein kinase 15 (Homo sapiens) (UniProt Q8TD08); test: Inhibition of T7 bacteriophage fused human ERK8 at 10 uM by KINOMEscan analysis relative to control
[13] = target: Homeodomain-interacting protein kinase 4 (Homo sapiens) (UniProt Q8NE63); test: Inhibition of T7 bacteriophage fused human HIPK4 at 10 uM by KINOMEscan analysis relative to control
[14] = target: Serine/threonine-protein kinase MRCK beta (Homo sapiens) (UniProt Q9Y5S2); test: Inhibition of T7 bacteriophage fused human MRCKB at 10 uM by KINOMEscan analysis relative to control
[15] = target: Serine/threonine-protein kinase Nek11 (Homo sapiens) (UniProt Q8NG66); test: Inhibition of T7 bacteriophage fused human NEK11 at 10 uM by KINOMEscan analysis relative to control
[16] = target: Serine/threonine-protein kinase PAK 2 (Homo sapiens) (UniProt Q13177); test: Inhibition of T7 bacteriophage fused human PAK2 at 10 uM by KINOMEscan analysis relative to control
[17] = target: Phosphatidylinositol 5-phosphate 4-kinase type-2 gamma (Homo sapiens) (UniProt Q8TBX8); test: Inhibition of T7 bacteriophage fused human PIP5K2C at 10 uM by KINOMEscan analysis relative to control
[18] = target: Serine/threonine-protein kinase PknB (Mycobacterium tuberculosis) (UniProt P9WI81); test: Inhibition of T7 bacteriophage fused […] tuberculosis PKNB at 10 uM by KINOMEscan analysis relative to control
[19] = target: Protein kinase C epsilon type (Homo sapiens) (UniProt Q02156); test: Inhibition of T7 bacteriophage fused human PRKCE at 10 uM by KINOMEscan analysis relative to control
[20] = target: Serine/threonine-protein kinase PRP4 homolog (Homo sapiens) (UniProt Q13523); test: Inhibition of T7 bacteriophage fused human PRP4 at 10 uM by KINOMEscan analysis relative to control
[21] = target: Rho-associated protein kinase 2 (Homo sapiens) (UniProt O75116); test: Inhibition of T7 bacteriophage fused human ROCK2 at 10 uM by KINOMEscan analysis relative to control
[22] = target: Ribosomal protein S6 kinase alpha-6 (Homo sapiens) (UniProt Q9UK32); test: Inhibition of T7 bacteriophage fused human C-terminal RSK4 Kinase domain-2 at 10 uM by KINOMEscan analysis relative to control
[23] = target: Serine/threonine-protein kinase TAO2 (Homo sapiens) (UniProt Q9UL54); test: Inhibition of T7 bacteriophage fused human TAOK2 at 10 uM by KINOMEscan analysis relative to control
[24] = target: Serine/threonine-protein kinase tousled-like 1 (Homo sapiens) (UniProt Q9UKI8); test: Inhibition of T7 bacteriophage fused human TLK1 at 10 uM by KINOMEscan analysis relative to control
[25] = target: Serine/threonine-protein kinase PAK 1 (Homo sapiens) (UniProt Q13153); test: Inhibition of T7 bacteriophage fused human PAK1 at 10 uM by KINOMEscan analysis relative to control
[26] = target: Mitogen-activated protein kinase 1 (Homo sapiens) (UniProt P28482); test: Inhibition of T7 bacteriophage fused human ERK2 at 10 uM by KINOMEscan analysis relative to control; values are per cent of control
[27] = target: Ephrin type-B receptor 1 (Homo sapiens) (UniProt P54762); test: Inhibition of T7 bacteriophage fused human EPHB1 at 10 uM by KINOMEscan analysis relative to control; values are per cent of control
[28] = target: Myosin light chain kinase 2, skeletal/cardiac muscle (Homo sapiens) (UniProt Q9H1R3); test: Inhibition of T7 bacteriophage fused human MYLK2 at 10 uM by KINOMEscan analysis relative to control; values are per cent of control
[29] = target: Casein kinase II subunit alpha' (Homo sapiens) (UniProt P19784); test: Inhibition of T7 bacteriophage fused human CSNK2A2 at 10 uM by KINOMEscan analysis relative to control; values are per cent of control
[30] = system: Receptor-type tyrosine-protein kinase FLT3 (Homo sapiens), P36888 [N841I]; test: Inhibition of T7 bacteriophage fused human FLT3 N841I mutant at 10 uM by KINOMEscan analysis relative to control; values are per cent of control

Chain of Mitogen-activated protein kinase 1 (Homo sapiens) (P28482 whole entry, the tested form may be a part): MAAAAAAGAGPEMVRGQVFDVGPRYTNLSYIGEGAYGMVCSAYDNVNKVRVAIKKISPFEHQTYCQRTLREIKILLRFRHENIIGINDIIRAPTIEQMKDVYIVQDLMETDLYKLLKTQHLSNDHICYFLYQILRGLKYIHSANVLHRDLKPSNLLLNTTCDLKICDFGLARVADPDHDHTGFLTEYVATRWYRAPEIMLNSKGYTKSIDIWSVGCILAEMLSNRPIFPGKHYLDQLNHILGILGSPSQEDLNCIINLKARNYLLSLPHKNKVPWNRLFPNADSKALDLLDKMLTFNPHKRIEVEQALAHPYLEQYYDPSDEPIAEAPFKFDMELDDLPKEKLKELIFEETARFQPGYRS
Chain of AP2-associated protein kinase 1 (Homo sapiens) (Q2M2I8 whole entry, looked up, the tested form may be a part): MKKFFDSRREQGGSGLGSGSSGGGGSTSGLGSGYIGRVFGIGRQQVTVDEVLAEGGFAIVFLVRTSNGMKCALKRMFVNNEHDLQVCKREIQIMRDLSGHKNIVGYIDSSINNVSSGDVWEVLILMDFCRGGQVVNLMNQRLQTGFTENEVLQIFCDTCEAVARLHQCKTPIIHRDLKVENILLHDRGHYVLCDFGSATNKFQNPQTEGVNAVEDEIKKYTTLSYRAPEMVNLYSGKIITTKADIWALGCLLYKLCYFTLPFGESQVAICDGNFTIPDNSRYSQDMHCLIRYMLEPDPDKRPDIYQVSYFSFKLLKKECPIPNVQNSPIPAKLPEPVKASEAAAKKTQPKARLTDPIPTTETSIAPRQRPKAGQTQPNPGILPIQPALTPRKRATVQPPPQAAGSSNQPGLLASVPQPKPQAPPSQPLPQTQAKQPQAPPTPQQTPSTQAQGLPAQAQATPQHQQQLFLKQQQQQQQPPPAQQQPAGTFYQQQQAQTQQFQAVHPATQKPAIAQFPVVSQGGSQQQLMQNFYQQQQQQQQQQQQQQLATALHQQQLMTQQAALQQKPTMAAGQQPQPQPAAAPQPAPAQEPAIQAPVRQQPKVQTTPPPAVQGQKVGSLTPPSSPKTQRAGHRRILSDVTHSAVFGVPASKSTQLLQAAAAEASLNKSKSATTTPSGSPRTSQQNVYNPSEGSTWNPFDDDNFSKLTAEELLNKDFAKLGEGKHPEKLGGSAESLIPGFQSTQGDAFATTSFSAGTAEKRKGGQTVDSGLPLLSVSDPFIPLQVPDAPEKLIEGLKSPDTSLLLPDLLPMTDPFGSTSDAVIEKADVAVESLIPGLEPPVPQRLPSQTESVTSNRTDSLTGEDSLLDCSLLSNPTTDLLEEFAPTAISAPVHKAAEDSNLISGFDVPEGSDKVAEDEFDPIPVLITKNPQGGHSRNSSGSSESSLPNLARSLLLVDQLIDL
Chain of Serine/threonine-protein kinase PAK 1 (Homo sapiens) (Q13153 whole entry, looked up, the tested form may be a part): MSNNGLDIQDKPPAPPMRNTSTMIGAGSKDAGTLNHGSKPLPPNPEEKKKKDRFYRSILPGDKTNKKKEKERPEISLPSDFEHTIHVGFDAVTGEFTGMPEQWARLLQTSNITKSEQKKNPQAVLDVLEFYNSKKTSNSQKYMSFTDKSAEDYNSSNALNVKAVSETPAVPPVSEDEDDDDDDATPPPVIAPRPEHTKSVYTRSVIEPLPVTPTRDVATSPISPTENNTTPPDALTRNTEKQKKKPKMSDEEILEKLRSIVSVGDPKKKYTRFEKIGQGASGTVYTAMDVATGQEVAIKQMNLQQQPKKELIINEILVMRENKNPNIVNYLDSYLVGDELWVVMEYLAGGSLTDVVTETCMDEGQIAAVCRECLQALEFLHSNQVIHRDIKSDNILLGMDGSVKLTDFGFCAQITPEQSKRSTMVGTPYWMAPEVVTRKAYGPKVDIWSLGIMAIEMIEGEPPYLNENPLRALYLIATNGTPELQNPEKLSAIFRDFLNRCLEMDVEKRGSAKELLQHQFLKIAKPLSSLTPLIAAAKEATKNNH
Chain of Ephrin type-B receptor 1 (Homo sapiens) (P54762 whole entry, the tested form may be a part): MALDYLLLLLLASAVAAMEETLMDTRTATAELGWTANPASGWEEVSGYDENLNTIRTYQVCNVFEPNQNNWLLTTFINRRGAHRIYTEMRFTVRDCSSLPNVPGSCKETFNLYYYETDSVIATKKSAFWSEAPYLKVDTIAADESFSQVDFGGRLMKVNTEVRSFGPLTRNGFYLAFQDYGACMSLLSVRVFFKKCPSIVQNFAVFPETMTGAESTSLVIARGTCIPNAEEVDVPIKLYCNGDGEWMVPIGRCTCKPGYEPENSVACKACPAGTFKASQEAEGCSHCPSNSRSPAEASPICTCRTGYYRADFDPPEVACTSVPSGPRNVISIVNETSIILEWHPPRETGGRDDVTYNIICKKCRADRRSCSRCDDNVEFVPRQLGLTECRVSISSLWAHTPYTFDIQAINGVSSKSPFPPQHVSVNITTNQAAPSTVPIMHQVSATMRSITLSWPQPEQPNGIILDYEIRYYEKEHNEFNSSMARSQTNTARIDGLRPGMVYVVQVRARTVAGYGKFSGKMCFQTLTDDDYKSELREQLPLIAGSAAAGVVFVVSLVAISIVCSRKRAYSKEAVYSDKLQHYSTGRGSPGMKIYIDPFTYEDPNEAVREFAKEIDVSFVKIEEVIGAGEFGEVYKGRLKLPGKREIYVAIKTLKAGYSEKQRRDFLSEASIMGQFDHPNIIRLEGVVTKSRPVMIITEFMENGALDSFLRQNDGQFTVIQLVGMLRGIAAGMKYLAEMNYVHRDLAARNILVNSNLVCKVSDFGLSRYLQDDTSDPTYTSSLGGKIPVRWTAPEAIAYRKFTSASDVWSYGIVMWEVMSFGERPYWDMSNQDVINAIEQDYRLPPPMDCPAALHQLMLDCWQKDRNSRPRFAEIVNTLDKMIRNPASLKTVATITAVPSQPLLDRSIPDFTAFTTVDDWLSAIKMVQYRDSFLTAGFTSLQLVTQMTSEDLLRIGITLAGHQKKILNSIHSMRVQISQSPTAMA
Chain of Serine/threonine-protein kinase PknB (Mycobacterium tuberculosis) (P9WI81 whole entry, the tested form may be a part): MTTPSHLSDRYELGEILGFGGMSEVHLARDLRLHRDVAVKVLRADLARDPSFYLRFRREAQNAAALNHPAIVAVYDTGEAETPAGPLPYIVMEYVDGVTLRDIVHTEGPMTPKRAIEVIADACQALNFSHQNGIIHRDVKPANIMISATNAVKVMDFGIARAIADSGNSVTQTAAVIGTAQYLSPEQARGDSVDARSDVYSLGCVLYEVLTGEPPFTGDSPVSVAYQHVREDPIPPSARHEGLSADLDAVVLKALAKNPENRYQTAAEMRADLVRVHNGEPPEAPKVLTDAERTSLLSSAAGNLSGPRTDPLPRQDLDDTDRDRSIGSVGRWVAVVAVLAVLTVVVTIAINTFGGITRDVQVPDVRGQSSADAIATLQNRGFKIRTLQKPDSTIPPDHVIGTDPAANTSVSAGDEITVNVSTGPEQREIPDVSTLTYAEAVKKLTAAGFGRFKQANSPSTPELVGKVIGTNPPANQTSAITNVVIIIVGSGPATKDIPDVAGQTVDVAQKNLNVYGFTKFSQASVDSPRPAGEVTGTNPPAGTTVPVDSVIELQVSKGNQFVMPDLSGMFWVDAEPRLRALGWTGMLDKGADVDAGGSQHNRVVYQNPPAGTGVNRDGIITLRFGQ
Chain of Cyclin-dependent kinase 13 (Homo sapiens) (Q14004 whole entry, looked up, the tested form may be a part): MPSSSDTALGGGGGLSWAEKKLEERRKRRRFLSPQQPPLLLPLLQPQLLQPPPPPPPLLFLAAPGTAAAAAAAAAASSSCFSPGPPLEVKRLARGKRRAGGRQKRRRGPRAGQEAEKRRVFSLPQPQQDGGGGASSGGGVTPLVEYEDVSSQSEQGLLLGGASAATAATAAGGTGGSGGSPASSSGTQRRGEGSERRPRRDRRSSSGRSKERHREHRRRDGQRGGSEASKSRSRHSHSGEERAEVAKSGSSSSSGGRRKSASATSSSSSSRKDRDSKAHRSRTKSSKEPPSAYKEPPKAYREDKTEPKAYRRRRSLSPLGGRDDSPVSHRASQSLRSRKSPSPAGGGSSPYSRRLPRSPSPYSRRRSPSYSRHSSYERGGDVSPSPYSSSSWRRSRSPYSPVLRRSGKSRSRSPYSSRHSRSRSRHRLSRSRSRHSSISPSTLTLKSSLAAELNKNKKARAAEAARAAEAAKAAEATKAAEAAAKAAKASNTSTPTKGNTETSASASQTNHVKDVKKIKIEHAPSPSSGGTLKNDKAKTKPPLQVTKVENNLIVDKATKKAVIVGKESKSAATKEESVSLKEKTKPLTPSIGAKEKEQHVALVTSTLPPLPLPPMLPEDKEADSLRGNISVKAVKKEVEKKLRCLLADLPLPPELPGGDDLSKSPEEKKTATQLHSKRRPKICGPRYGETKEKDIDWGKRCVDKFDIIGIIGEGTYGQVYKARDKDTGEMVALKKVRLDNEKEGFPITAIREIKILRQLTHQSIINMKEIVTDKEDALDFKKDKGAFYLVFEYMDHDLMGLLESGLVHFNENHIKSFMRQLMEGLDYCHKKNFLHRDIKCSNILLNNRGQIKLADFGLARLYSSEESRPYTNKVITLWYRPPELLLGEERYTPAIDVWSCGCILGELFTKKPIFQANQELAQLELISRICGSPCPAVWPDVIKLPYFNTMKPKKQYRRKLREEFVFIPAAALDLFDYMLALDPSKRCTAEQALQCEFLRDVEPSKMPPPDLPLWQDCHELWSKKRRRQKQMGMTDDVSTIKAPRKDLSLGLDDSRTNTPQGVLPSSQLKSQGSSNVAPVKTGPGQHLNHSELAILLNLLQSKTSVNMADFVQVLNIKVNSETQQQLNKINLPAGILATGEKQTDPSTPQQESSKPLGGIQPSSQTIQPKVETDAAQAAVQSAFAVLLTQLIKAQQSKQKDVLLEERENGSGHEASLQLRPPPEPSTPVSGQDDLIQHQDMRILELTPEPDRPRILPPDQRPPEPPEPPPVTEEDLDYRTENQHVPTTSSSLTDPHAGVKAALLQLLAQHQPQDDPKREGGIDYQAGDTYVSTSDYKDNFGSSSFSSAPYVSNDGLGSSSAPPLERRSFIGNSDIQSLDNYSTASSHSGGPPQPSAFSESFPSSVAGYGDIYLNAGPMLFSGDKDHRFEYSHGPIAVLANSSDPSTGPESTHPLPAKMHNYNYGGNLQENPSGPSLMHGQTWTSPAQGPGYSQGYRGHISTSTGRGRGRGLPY

COc1cc(N2CCC(N3CCN(C)CC3)CC2)ccc1Nc1ncc2c(n1)N(C)c1ccccc1C(=O)N2C showed an inhibition [1] of 84%, an inhibition [2] of 100% and an inhibition [3] of 50%. The inhibition [4] was 100%, the inhibition [5] was 55% and the inhibition [6] was 100%. It also gave an inhibition [7] of 100%, an inhibition [8] of 100% and an inhibition [9] of 95%. It also gave an inhibition [10] of 100%, an inhibition [11] of 100% and an inhibition [12] of 100%. For the same compound, the inhibition [13] was 100%, the inhibition [14] was 100% and the inhibition [15] was 100%. For the same compound, the inhibition [16] was 65%, the inhibition [17] was 40% and the inhibition [18] was 100%. The inhibition [19] was 100%, the inhibition [20] was 93% and the inhibition [21] was 87%. The inhibition [22] was 2.2%, the inhibition [23] was 65% and the inhibition [24] was 100%. It also gave an inhibition [25] of 95%, a residual activity [26] of 85% and a residual activity [27] of 98%. For the same compound, the residual activity [28] was 98%, the residual activity [29] was 93% and the residual activity [30] was 73%.
